From BindingDB's records for doi:10.1021/acschembio.6b00156 (Helmholtz-Institute For Pharmaceutical Research Saarland, 2016)

Target: Quinolone signal response protein (Pseudomonas aeruginosa, UniProt A0A072ZMX8)
Assay: Isothermal Titration Calorimetry (ITC)
Settings: 14 °C
Protocol: ITC titrations were performed using an ITC200 instrument (Microcal Inc.,Malvern). DMSO stock solutions (20 mM) of fragments were diluted 1:20 (v/v) into ITC titration buffer (50 mM tricine, 2 mM MnCl2, pH = 8.5) to give a 1 mM final compound concentration at 5% (v/v) DMSO. Aliquots of the same buffer batch (stored at […]) were used as for protein storage to avoid a buffer mismatch. H6PqsE was diluted in the same buffer to 100 μM, and DMSO concentration was adjusted to 5% (v/v). Titrations were carried out at 298 K using 19 injections of 2 μL every 180 s. Areas under the peaks were integrated. Baseline peaks at the endof a titration accounting for the heat of dilution and mixing were subtracted from the measurement. Data were fitted to a 1:1 binding model (MicroCal Origin 7 software).

Quinolone signal response protein, sequence (A0A072ZMX8 whole entry): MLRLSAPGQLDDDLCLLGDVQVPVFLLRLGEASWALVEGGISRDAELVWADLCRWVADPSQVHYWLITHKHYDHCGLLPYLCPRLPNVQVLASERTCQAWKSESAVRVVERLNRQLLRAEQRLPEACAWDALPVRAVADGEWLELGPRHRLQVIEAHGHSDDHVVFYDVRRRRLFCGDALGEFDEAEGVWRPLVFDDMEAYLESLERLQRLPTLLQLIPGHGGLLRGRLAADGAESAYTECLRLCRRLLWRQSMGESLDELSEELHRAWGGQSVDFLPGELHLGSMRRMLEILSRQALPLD

Kd [µM] | SMILES
19.6 | Cc1ccsc1C(=O)O [AC30341 (3)]
0.9 | O=C(O)c1ccccc1-c1cccnc1 [CC41801 (1)]
